According to patent US20260256931A1, “CD276 ANTIBODY AND METHODS OF USE THEREOF” (priority 2023, published 2026):
pIC50: −log10 of the molar value. Where a SMILES comes first, the peptide text is derived from it. [ ]: non-standard residue; d: D form. Dolaproine = CO[C@@H]([C@@H]1CCCN1)[C@@H](C)C(=O)O; Dil = CC[C@H](C)[C@H](NC)[C@@H](CC(=O)O)OC; NMeV = CN[C@H](C(=O)O)C(C)C

What was measured:
Type in all cases: cell-based
MDA-MB-231 = experiment: In vitro cytotoxicity assay (MTT), MDA-MB-231; conditions: Homo sapiens, MDA-MB-231, 120 h
Experimental: (§1) The human and mouse TNBC cells were seeded in 96-well plates with a density of 10,000 cells/well for MDA-MB-468, 1,000 cells/well for MDA-MB-231 and 500 cells/well for 4T1. The free MMAF, mAb-MMAF and mAb-MMAF/IMQ were added into each well to reach the final dosages of 0-300 or 400 nM. Higher concentrations, i.e. 0-20 μM, of free IMQ and mAb-IMQ, were tested. The treated cells were incubated at 37° C. and 5% CO2 for five days and the cell viability was analyzed using MTT Cell Proliferation Assay kit.

MDA-MB-468 = experiment: In vitro cytotoxicity assay (MTT), MDA-MB-468; conditions: Homo sapiens, 120 h, MDA-MB-468, five days
Experimental: as §1

4T1 = experiment: In vitro cytotoxicity assay (MTT), 4T1; conditions: Mus musculus, 4T1, 120 h
Experimental: as §1

`CC[C@H](C)[C@@H]([C@@H](CC(=O)N1CCC[C@H]1[C@H](OC)[C@@H](C)C(=O)N[C@@H](Cc1ccccc1)C(=O)O)OC)N(C)C(=O)[C@@H](NC(=O)[C@@H](NC)C(C)C)C(C)C` [MMAF, Monomethyl auristatin F] (H-[NMeV]V[Dil][Dolaproine]F-OH) showed a pIC50 (MDA-MB-231) of 6.82, a pIC50 (MDA-MB-468) of 6.84 and a pIC50 (4T1) of 6.98.
